Test results from ChEMBL document CHEMBL5131558, “Fluorescent PARP Inhibitors Applied To Intracranial Glioblastoma: Accumulation and Persistence In Vivo” (ACS Med Chem Lett, 2022).

Assays:
U87 = test: Inhibition of PARP production in human U87 cells preincubated for 24 hrs followed by H2O2 addition and measured over 15 mins; type: cell-based; conditions: dose 0.1-10 µM, time 1455.0 min, DDE = dose-dependent effect
U-87 MG [1] = test: Cytotoxicity against human U87 cells assessed as reduction in cell viability incubated for 72 hrs by alamar blue assay; type: functional, cell-based, U-87MG ATCC
MDA-MB-231 [2] = test: Inhibition of PARP production in human MDA-MB-231 cells preincubated for 24 hrs followed by H2O2 addition and measured over 15 mins; type: cell-based; conditions: dose 0.001-10 µM, time 1455.0 min, DDE = dose-dependent effect
MDA-MB-231 [3] = test: Cytotoxicity against human MDA-MB-231 cells assessed as reduction in cell viability incubated for 72 hrs by alamar blue assay; type: functional, cell-based; conditions: MDA-MB-231, 72 h
[4] = Drug uptake in tumor of mouse xenografted with human U87 MG cells assessed as increase in fluorescence signal at 25 nmol, iv measured after 24 hrs by […] imaging method; type: ADME, organism-based, Neoplasm, U-87MG ATCC; conditions: in vivo
[5] = Drug uptake in liver of mouse xenografted with human U87 MG cells at 25 nmol, iv measured after 24 hrs by fluorescence imaging analysis; type: ADME, organism-based, U-87MG ATCC; conditions: in vivo
U-87 MG [6] = test: Cytotoxicity against human U87 cells assessed as reduction in cell viability incubated for 72 hrs in presence of rAOC-Rib by alamar blue assay; type: functional, cell-based, U-87MG ATCC
[7] = Half life of the compound; type: physicochemical

SMILES | IC50 (U-87 MG [1]) | IC50 (MDA-MB-231 [3]) | other results
CN(Cc1ccc(-c2[nH]c3cc(F)cc4c3c2CCNC4=O)cc1)C(=O)CCCCCCCNC(=O)CCCCCN1/C(=C/C=C2\CCCC(/C=C/C3=[N+](CCCCCC(=O)O)c4ccccc4C3(C)C)=C2Cl)C(C)(C)c2ccccc21 | 12 µM | – | inhibition (U87): Dde
CN(Cc1ccc(-c2[nH]c3cc(F)cc4c3c2CCNC4=O)cc1)C(=O)CCCCCN1/C(=C/C=C2\CCCC(/C=C/C3=[N+](CCCCCC(=O)O)c4ccccc4C3(C)C)=C2Cl)C(C)(C)c2ccccc21 | 15 µM | 13 µM | inhibition (MDA-MB-231 [2]): Dde; Drug uptake [4]: Active; Drug uptake [5]: Active
CN(CCCCCCCCN)Cc1ccc(-c2[nH]c3cc(F)cc4c3c2CCNC4=O)cc1 | 79 µM | – | –
CC1(C)C(/C=C/C2=C(Cl)C(=C/C=C3/N(CCCCCC(=O)O)c4ccccc4C3(C)C)/CCC2)=[N+](CCCCCC(=O)O)c2ccccc21 | 27 µM | – | IC50 (U-87 MG [6]): 28 µM; half-life [7]: 30 min
CNCc1ccc(-c2[nH]c3cc(F)cc4c3c2CCNC4=O)cc1 [RUCAPARIB] | 20 µM | 39 µM | –
